Assay results taken from patent publication US20260242392A1, “ARYL TRICYCLIC STING AGONISTS AND USE THEREOF” (SHENZHEN GENUINE BIOTECHNOLOGY CO., LTD., priority 2023, published 2026).

Biological target: T1, Sting-HAQ (Homo sapiens, UniProt Q86WV6, G230A/H232R/R293Q/R71H)
T1 construct: host or cells: HEK293-HAQ Luc reporter cell line
Test: HEK293-HAQ Luc reporter gene assay (Steady-Glo luciferase)
Type: cell-based
Conditions: 24 h incubation; read-out: HEK293-HAQ Luc Report Assay (24 h) EC50
Description: Test Principle: The HEK293-HAQ Luc reporter cell line utilizes the chemiluminescent reaction property of luciferase binding to its substrate beetle luciferin. The regulatory elements of the Sting-HAQ gene transcription are cloned upstream/downstream of the firefly luciferase gene to construct a luciferase recombinant plasmid. The recombinant plasmid is then transfected into HEK293 cells. After treatment with compounds, the cells are lysed, and the luciferase activity is measured using the Steady-Glo® detection system (Cat #E2550) manufactured by Promega Corporation. The effect of compounds on the Sting-HAQ regulatory elements is determined based on the level of luciferase activity. The Steady Glo® Luciferase Assay System enables high-throughput evaluation of the degree of activation of reporter cell lines by compounds through the activity of luciferase in mammalian cells, and provides long-term stable luminescence when used with reporter cell lines. The detection system can sustain a signal half-life of more than 5 hours in the test cell culture medium, enabling uniform measurement without sample pretreatment.
Test Method: Complete medium (DMEM+10% FBS+1% P/S) was prepared. The Hek293-HAQ Luc reporter cell line was resuscitated and passaged twice. Cells in logarithmic growth phase were collected by centrifugation, counted, and resuspended to an appropriate concentration. The cell suspension was seeded into a 96-well plate at a density of 20000 cells/well, with 100 µL of the cell suspension added per well. Test compounds were prepared into stock solutions with DMSO, and serially diluted 3-fold with DMSO starting from the highest concentration of 100 mM to obtain 9 concentration gradients. The test compounds were diluted 47.62-fold with culture medium, and 5 μL of each dilution was added to the 96-well plate containing 100 μL of cells. To Min control wells were added 5 μL of DMSO-cell culture medium mixture (with a final DMSO concentration of 0.1%), while Max control wells received 5 μL of a positive reference compound. The plate was incubated at 37° C. in an incubator with 5% carbon dioxide and relative humidity above 90% for 24 h. Subsequently, 75 μL/well of […] was added to terminate the reaction. After shaking at 305 rpm for 10 min, the plates were detected on Envision. The […] value RLU of each well was read, and the activation rate was calculated according to the formula: Activation %=(Sample−Ave_L)/(Ave_H−Ave_L)×100, where Ave_L: RLU Min (0.1% DMSO), Ave_H: RLU Max (positive reference compound). The activation rate, Activation % (Y), corresponding to each concentration (X), was entered in EXCEL. The half-maximal effective concentration EC50 value of each compound was calculated according to the built-in four-parameter fitting formula Y=Bottom+(Top−Bottom)/(1+10^((LogEC50−X)*HillSlope)) using the XLfit plug-in.

T1 sequence (Q86WV6 whole entry R71H/G230A/H232R/R293Q): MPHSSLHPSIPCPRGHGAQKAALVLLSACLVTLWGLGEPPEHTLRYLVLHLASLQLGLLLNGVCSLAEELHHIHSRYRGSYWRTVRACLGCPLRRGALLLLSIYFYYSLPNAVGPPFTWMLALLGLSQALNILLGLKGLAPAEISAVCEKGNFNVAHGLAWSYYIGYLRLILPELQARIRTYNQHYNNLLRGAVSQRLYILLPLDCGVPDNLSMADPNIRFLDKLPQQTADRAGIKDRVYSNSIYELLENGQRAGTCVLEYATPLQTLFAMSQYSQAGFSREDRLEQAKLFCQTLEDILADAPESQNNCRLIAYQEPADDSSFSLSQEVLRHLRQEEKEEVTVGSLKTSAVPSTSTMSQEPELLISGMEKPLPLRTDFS

Structure (SMILES)	EC50 [µM]
CC[C@H](CC(=O)c1cc2c(cc(OC)c3oc(F)cc32)s1)C(=O)O	4.1
COc1cc2sc(C(=O)CCC(=O)O)cc2c2cnoc12	> 100
COc1cc2sc(C(=O)CCC(=O)O)cc2c2nc(C3CC3)oc12	90.7
COc1cc2sc(C(=O)CCC(=O)O)cc2c2c1ncn2C	> 100
COc1cc2sc(C(=O)C[C@H](C)C(=O)O)cc2c2ncoc12 [drawing 651]	0.16
CCC(CC(=O)c1cc2c(cc(OC)c3ocnc32)s1)C(=O)O (stereo not shown)	0.308
COc1cc2sc(C(=O)CCC(=O)O)cc2c2ncoc12 [drawing 622]	1.23
COc1cc2sc(C(=O)CCC(=O)O)cc2c2cc(C)oc12	1.04
COc1cc2sc(C(=O)CCC(=O)O)c(C)c2c2nc(N)oc12	> 100
COc1cc2sc(C(=O)CC(C)C(=O)O)cc2c2cc(F)oc12 (stereo not shown)	0.57
COc1cc2sc(C(=O)CCC(=O)O)cc2c2c1OCC2	7.87
COc1cc2sc(C(=O)CC(C)C(=O)O)c(C)c2c2ncoc12 (stereo not shown)	92
COc1cc2sc(C(=O)CCC(=O)O)cc2c2nc(N)oc12	> 100
COc1cc2sc(C(=O)CCC(=O)O)cc2c2ncn(C)c12	> 100
COc1cc2sc(C(=O)CC(C)C(=O)O)nc2c2nc(C)oc12 (stereo not shown)	3.32
C[Si](C)(C)CCOCn1ncc2c3cc(C(=O)CCC(=O)O)sc3ccc21	> 100
CC[C@H](CC(=O)c1cc2c(cc(OC)c3oc(C)cc32)s1)C(=O)O	4.46
CCc1nc2c(o1)c(OC)cc1sc(C(=O)CCC(=O)O)cc12	36
CCC(CC(=O)c1cc2c(cc(OC)c3oc(C)nc32)s1)C(=O)O (stereo not shown)	0.326
CCC(CC(=O)c1cc2c(cc(OC)c3oc(F)cc32)s1)C(=O)O (stereo not shown)	0.823
COc1cc2sc(C(=O)CC(C)C(=O)O)cc2c2ccoc12 (stereo not shown)	2.2
COc1cc2sc(C(=O)C[C@@H](C)C(=O)O)cc2c2c(F)c(C)oc12	1.51

Structure (SMILES)	EC50 [µM]
COc1cc2sc(C(=O)CCC(=O)O)c(C)c2c2ncoc12	58
COc1cc2sc(C(=O)CC(C)C(=O)O)c(C)c2c2nc(N)oc12 (stereo not shown)	> 100
COc1cc2sc(C(=O)CC(C)C(=O)O)cc2c2ncoc12 (stereo not shown) [drawing 631]	1.12
COc1cc2sc(C(=O)CCC(=O)O)cc2c2nc(C(C)C)oc12	> 100
COc1cc2sc(C(=O)CCC(=O)O)cc2c2nc(C)oc12 [drawing 626]	1.58
COc1cc2sc(C(=O)CCC(=O)O)cc2c2ccoc12	2.52
CC[C@@H](CC(=O)c1cc2c(cc(OC)c3oc(C)cc32)s1)C(=O)O	0.24
COc1cc2sc(C(=O)CCC(=O)O)c(C)c2c2cc(C)oc12	19
Cn1cc2c(ccc3sc(C(=O)CCC(=O)O)cc32)n1	41.8
COc1cc2cc(C(=O)CCC(=O)O)sc2cc1OC [MAS-2, reference compound]	2.59
COc1cc2sc(C(=O)CCC(=O)O)cc2c2cn(C)nc12	49
COc1cc2sc(C(=O)CCC(=O)O)nc2c2nc(C)oc12	18
COc1cc2sc(C(=O)C[C@@H](C)C(=O)O)cc2c2ncoc12	5.81
COc1cc2sc(C(=O)C[C@H](C)C(=O)O)cc2c2cc(C)oc12 [drawing 660]	0.341
C[Si](C)(C)CCOCn1cc2c(ccc3sc(C(=O)CCC(=O)O)cc32)n1	> 100
COc1cc2sc(C(=O)C[C@@H](C)C(=O)O)cc2c2cc(F)oc12	6.87
CC[C@@H](CC(=O)c1cc2c(cc(OC)c3oc(F)cc32)s1)C(=O)O	0.352
COc1cc2sc(C(=O)CCC(=O)O)cc2c2cc(F)oc12	0.792
COc1cc2sc(C(=O)CCC(=O)O)cc2c2nc[nH]c12	> 100
CCC(CC(=O)c1cc2c(cc(OC)c3occc32)s1)C(=O)O (stereo not shown)	0.979
COc1cc2sc(C(=O)CC(C)C(=O)O)cc2c2cc(C)oc12 (stereo not shown)	1.2
COc1cc2sc(C(=O)C[C@H](C)C(=O)O)cc2c2cc(F)oc12 [drawing 673]	0.465

Structure (SMILES)	EC50 [µM]
CCC(CC(=O)c1cc2c(cc(OC)c3oc(C)cc32)s1)C(=O)O (stereo not shown)	0.565
C[C@@H](CC(=O)c1cc2c(cc(O)c3oc(F)cc32)s1)C(=O)O	29.3
COc1cc2sc(C(=O)C[C@H](C)C(=O)O)nc2c2nc(C)oc12	4.18
COc1cc2sc(C(=O)CCC(=O)O)cc2c2ccn(C)c12	> 100
COc1cc2sc(C(=O)CCC(=O)O)cc2c2c1OCCO2	> 100
[2H]c1c(C)oc2c(OC)cc3sc(C(=O)C[C@H](C)C(=O)O)cc3c12	0.313
COc1cc2sc(C(=O)CC(C)C(=O)O)cc2c2nc(N)oc12 (stereo not shown)	> 100
COc1cc2sc(C(=O)CC(C)C(=O)O)nc2c2cc(C)oc12 (stereo not shown)	2.34
COc1cc2sc(C(=O)CCC(=O)O)cc2c2c1CCC2	> 100
COc1cc2sc(C(=O)C[C@@H](C)C(=O)O)nc2c2nc(C)oc12	67.7
COc1cc2sc(C(=O)CCC(=O)O)c(C)c2c2ccoc12	29.8
COc1cc2sc(C(=O)C(C)CC(=O)O)nc2c2nc(C)oc12 (stereo not shown)	59.9
CC[C@@H](CC(=O)c1cc2c(cc(OC)c3ocnc32)s1)C(=O)O [drawing 659]	0.302
COc1cc2sc(C(=O)C[C@H](C)C(=O)O)cc2c2c(F)c(C)oc12 [drawing 678]	0.19
Cn1ncc2c3cc(C(=O)CCC(=O)O)sc3ccc21	> 100
[2H]C([2H])([2H])Oc1cc2sc(C(=O)C[C@H](C)C(=O)O)cc2c2cc(F)oc12	0.263
COc1cc2sc(C(=O)CCC(=O)O)cc2c2ccsc12	10.7
COc1cc2sc(C(=O)CCC(=O)O)cc2c2cnn(C)c12	> 100
COc1cc2sc(C(=O)CCC(=O)O)cc2c2ocnc12	2.5
O=C(O)CCC(=O)c1cc2c(ccc3[nH]ncc32)s1	> 100

Test system: not listed separately
Test: Pharmacokinetic (PK) study in ICR mice, IV and PO
Conditions: ICR, mouse, plasma, iv, 2 mg/kg
Description: The doses for IV and PO were 2 mg/kg and 5 mg/kg, respectively. Blood was collected at different time points after IV and PO administration and placed in heparinized tubes. Plasma was separated and frozen in a −20° C. refrigerator. Plasma was processed and then analyzed by LCMS/MS. Pharmacokinetic parameters of drug administration were calculated using a non-compartmental model in WinNonlin 8.2 software.

Structure (SMILES)	AUC(0-t) [ng·h/mL]	Vd [L/kg]	clearance [mL/min/kg]	half-life [h]
COc1cc2sc(C(=O)CCC(=O)O)cc2c2nc(C)oc12 [Example 6, 4-(4-methoxy-2-methylthieno[2′,3′:5,6]benzo[1,2-d]oxazol-7-yl)-4-oxobutanoic acid]	4240	0.264	7.85	1.11
COc1cc2sc(C(=O)CCC(=O)O)cc2c2ncoc12 [Compound 1, 4-(4-methoxythieno[2′,3′:5,6]benzo[1,2-d]oxazol-7-yl)-4-oxobutanoic acid]	660	0.76	50.3	0.658
COc1cc2cc(C(=O)CCC(=O)O)sc2cc1OC [MAS-2, reference compound]	1010	0.343	33	0.431
COc1cc2sc(C(=O)C[C@H](C)C(=O)O)cc2c2c(F)c(C)oc12 [Compound 59]	5500	0.191	6.03	2.35
COc1cc2sc(C(=O)C[C@H](C)C(=O)O)cc2c2cc(F)oc12 [Example 62, (S)-4-(2-fluoro-4-methoxythieno[3,2-e]benzofuran-7-yl)-2-methyl-4-oxobutanoic acid]	4300	0.49	7.56	2.68
COc1cc2sc(C(=O)C[C@H](C)C(=O)O)cc2c2cc(C)oc12 [Example 32]	3700	0.252	8.98	0.821

Same assay, conditions: ICR, mouse, plasma, po, 5 mg/kg

Structure (SMILES)	AUC(0-t) [ng·h/mL]	Cmax [ng/mL]	bioavailability [%]	half-life [h]
COc1cc2sc(C(=O)CCC(=O)O)cc2c2nc(C)oc12 [Example 6, 4-(4-methoxy-2-methylthieno[2′,3′:5,6]benzo[1,2-d]oxazol-7-yl)-4-oxobutanoic acid]	3680	4280	42.5	2.64
COc1cc2sc(C(=O)CCC(=O)O)cc2c2ncoc12 [Compound 1, 4-(4-methoxythieno[2′,3′:5,6]benzo[1,2-d]oxazol-7-yl)-4-oxobutanoic acid]	757	1270	47	1.56
COc1cc2cc(C(=O)CCC(=O)O)sc2cc1OC [MAS-2, reference compound]	1530	2810	61.2	1.63
COc1cc2sc(C(=O)C[C@H](C)C(=O)O)cc2c2c(F)c(C)oc12 [Compound 59]	5180	7700	38	1.1
COc1cc2sc(C(=O)C[C@H](C)C(=O)O)cc2c2cc(F)oc12 [Example 62, (S)-4-(2-fluoro-4-methoxythieno[3,2-e]benzofuran-7-yl)-2-methyl-4-oxobutanoic acid]	10200	10100	92.9	3.05
COc1cc2sc(C(=O)C[C@H](C)C(=O)O)cc2c2cc(C)oc12 [Example 32]	3450	5360	37.4	0.925

Same assay, conditions: mouse PK, injection 2 mg/kg and oral 5 mg/kg

Structure (SMILES)	clearance in vivo compared to MAS-2	exposure in vivo compared to MAS-2
COc1cc2sc(C(=O)C[C@H](C)C(=O)O)cc2c2c(F)c(C)oc12 [Compound 59]	lower clearance	higher exposure

Same assay, conditions: mouse PK, oral administration at 5 mg/kg

Structure (SMILES)	oral availability [%]
COc1cc2cc(C(=O)CCC(=O)O)sc2cc1OC [MAS-2, reference compound]	61.23
